Earlier results as cited in patent US20220125792A1, “USE OF COMPOSITION CONTAINING CDK4/6 INHIBITOR IN COMBINATION WITH ANASTROZOLE IN PREPARATION OF MEDICAMENT FOR TREATING TUMOR DISEASES” (Jiangsu Hengrui Medicine Co., Ltd., priority 2019, published 2022).

What was measured:
[1] = system: systemic aromatization and plasma estrogen level; conditions: letrozole 2.5 mg once a day, postmenopausal women with metastatic breast cancer

N#Cc1ccc(C(c2ccc(C#N)cc2)n2cncn2)cc1 [letrozole]
inhibition of systemic aromatization and plasma estrogen level, compared with anastrozole (1 mg daily) [1]: more effective systemic aromatization and plasma estrogen level inhibitor than anastrozole | total remission rate (ORR), letrozole versus anastrozole (advanced breast cancer; European Journal of Cancer 39 (2003) 2318-2327): significantly superior to anastrozole | response of advanced breast cancer, second-line hormonal therapy, letrozole versus anastrozole (advanced breast cancer; open randomized trial): responded more strongly to letrozole than to anastrozole
